# Source: US10774109B2, “Crystal of reduced glutathione and method for producing same” (KYOWA HAKKO BIO CO., LTD., priority 2016, dated 2020)
# Columns and labels:
# [1] = Dense specific volume (Multi Tester MT-1001T); format: physicochemical; details: α-type crystal; 200 taps
# Experimental: Here, the “dense specific volume” refers to a value which is obtained by dividing a volume occupied by a powder by a mass when the powder is filled in a container and the mass of the powder is measured, and thereafter a given impact is applied to the container.
# [Measurement Conditions for Dense Specific Volume]
# [2] = Crystal thickness by scanning electron microscope; format: physicochemical; details: α-type crystal
# Source text: In this description, when a crystal is ascertained three-dimensionally using a microscope, the longest axis is referred to as “longitudinal axis”, and an axis perpendicular to the longitudinal axis is referred to as “lateral axis” (FIG. 2). Further, the length in the longitudinal axis direction of a crystal, the major axis of the cross section of the lateral axis, and the minor axis of the cross section of the lateral axis are referred to as “crystal length”, “crystal width”, and “crystal thickness”, respectively (see FIG. 2), and the averages thereof are referred to as “average length”, “average width”, and “average thickness”, respectively.
# The crystal thickness can be measured, for example, using a scanning electron microscope [JSM-6510 (manufactured by JEOL Ltd.)] at a measurement magnification of 250 to 1000 times. For example, as for 50 crystals, crystals whose longitudinal axis is perpendicular to the scanning electron microscope field of view are selected, and the thickness of each crystal is measured (FIG. 2, right drawing), and the average thickness T is measured. A sample is fixed to an aluminum sample stand with a carbon double-sided tape.
# [3] = Loose specific volume (Multi Tester MT-1001T); format: physicochemical; details: for Difference in specific volume: loose minus dense specific volume; for Loose specific volume: α-type crystal
# Experimental: Here, the “loose specific volume” refers to a value which is obtained by dividing a volume occupied by a powder by a mass when the powder is filled in a container and the mass of the powder is measured.
# [Measurement Conditions for Loose Specific Volume]
# Vibration width: 0.6 to 0.7 mm
# [4] = Angle of repose (Multi Tester MT-1001T)
# [5] = Angle of rupture (Multi Tester MT-1001T)
# [6] = compared with Comparative Example
# Source text: FIG. 1 illustrates the change in loose specific volume over time when crystals of reduced glutathione obtained in Example 3 and Comparative Example were pulverized. The vertical axis represents the loose specific volume (mL/g), and the horizontal axis represents the pulverization time (min).
# The crystal of reduced glutathione of the present invention can be produced by further pulverizing the crystal of reduced glutathione of the present invention obtained by the above-mentioned method. The pulverization of the crystal can be performed, for example, using Osterizer Oster Vintage Blender 16-speed Dual Range (Osterizer OSTER) under the following conditions.
# [Conditions for Pulverization of Crystal]
# Sample feeding amount: 20 g/feed
# The α-type crystals of reduced glutathione obtained in Example 3 and Comparative Example were pulverized, and the change in loose specific volume over time was measured.
SMILES,Dense specific volume [1] [mL/g],Average crystal thickness T [2] [μm],Difference in specific volume [3] [mL/g],Loose specific volume [3] [mL/g],Angle of repose ([4]; After pulverization) [°],Angle of repose ([4]; Before pulverization) [°],Angle of rupture ([5]; After pulverization) [°],Angle of rupture ([5]; Before pulverization) [°],loose specific volume during pulverization ([6]; all pulverization times),"pulverization behaviour (speed of pulverization, convergence of specific volume) ([6]; FIG. 1)","flowability ([4]; from Table 3, before and after pulverization)"
"N[C@@H](CCC(=O)N[C@@H](CS)C(=O)NCC(=O)O)C(=O)O [Commercially available product A, reduced glutathione]",2.49,1.9,2.20,4.69,,,,,,,
"N[C@@H](CCC(=O)N[C@@H](CS)C(=O)NCC(=O)O)C(=O)O [Comparative Example, reduced glutathione]",1.95,5.5,1.48,3.42,51.8,51.4,41.5,46.8,,,
"N[C@@H](CCC(=O)N[C@@H](CS)C(=O)NCC(=O)O)C(=O)O [Example 3, reduced glutathione]",1.29,16.7,0.71,2.00,37.4,42.4,31.1,39.4,smaller,pulverized more promptly,the flowability is high
"N[C@@H](CCC(=O)N[C@@H](CS)C(=O)NCC(=O)O)C(=O)O [Commercially available product B, reduced glutathione]",2.88,,2.61,5.50,,,,,,,
"N[C@@H](CCC(=O)N[C@@H](CS)C(=O)NCC(=O)O)C(=O)O [Example 1, reduced glutathione]",1.26,17.0,0.62,1.88,,,,,,,
"N[C@@H](CCC(=O)N[C@@H](CS)C(=O)NCC(=O)O)C(=O)O [Example 2, reduced glutathione]",1.29,16.7,0.71,2.00,,,,,,,
